Results on 31 compounds are retold here after article PMC6905855, “Agonist-specific voltage-dependent gating of lysosomal two-pore Na^+ channels” (eLife, 2019).

“And” between values parts separate entries of the source, which are not always exact repeats. Equal entries are not always repeated. Structures can show the parent of a compound that is named as a salt. Where two headings read alike, the source gives them in different places.

A word on the EC50: it is the concentration needed to bring the measured effect to its halfway point.

The target in test [1] is T1, hTPC2 (Homo sapiens, UniProt Q8NHX9).
T1 construct: expressed in transfected cells; host or cells: Cos1 and HEK293
Description: Whole-endolysosome recordings of ITPC2. The test is classed as biochemical. The arrangement: Whole endo-lysosomal TPC2 current activated by LyNa-VAs, Test 3 / Whole endo-lysosomal TPC2 current activated by LyNa-VAs, mean: unit not given here. The following applies: for Whole endo-lysosomal TPC2 current activated by LyNa-VAs, mean: mean of n tests; for ITPC2: whole endolysosome recordings with 100 µM of LyNa-VAs at −120 mV.

The target in test [2] is T2, surface-expressing mutant TPC2 channel (TPC2^LL/AA) in HEK293 cells (Homo sapiens, UniProt Q8NHX9, L11A/L12A).
T2 construct: expressed in transfected cells; host or cells: HEK293
As to the kind of experiment: Whole-cell recordings of ITPC2-LL/AA. It is filed as cell-based. Conditions: for I-TPC2: preliminary whole-cell test of positive LOPAC hits, HEK293 cells overexpressing TPC2 LL/AA, voltage ramp -140 to +100 mV (200 ms), measured at -140 mV; for activation of whole-cell ITPC2-LL/AA (in words): bath application, symmetric Na^+, 100 µM where stated; for current density: whole cell recordings, individual recordings; for EC50: whole-cell recordings at −140 mV, TPC2^LL/AA-transfected HEK293 cells. From the text: We therefore characterized the responses of TPC2 channels to TCAs in detail using electrophysiological methods. We first performed whole-cell recordings in HEK293 cells that were transfected with surface-expressed TPC2 mutant channels (TPC2-L^11L^12-AA; abbreviated as TPC2^LL/AA hereafter).
All TPC1 and TPC2 mutants were generated with a site-directed mutagenesis kit (Qiagen) using EGFP- human TPC1 and TPC2 as the templates. All constructs were confirmed by DNA sequencing.
Cells were transfected with Lipofectamine 2000 (Invitrogen). After culture media were refreshed 18–24 hr post-transfection, cells were used for the electrophysiological assays 24–36 hr post-transfection.
All bath solutions were applied via a perfusion system that allowed complete solution exchange within a few seconds. […] Whole-cell currents were digitized at 10 kHz and filtered at 2 kHz.

T2 sequence (Q8NHX9 whole entry L11A/L12A): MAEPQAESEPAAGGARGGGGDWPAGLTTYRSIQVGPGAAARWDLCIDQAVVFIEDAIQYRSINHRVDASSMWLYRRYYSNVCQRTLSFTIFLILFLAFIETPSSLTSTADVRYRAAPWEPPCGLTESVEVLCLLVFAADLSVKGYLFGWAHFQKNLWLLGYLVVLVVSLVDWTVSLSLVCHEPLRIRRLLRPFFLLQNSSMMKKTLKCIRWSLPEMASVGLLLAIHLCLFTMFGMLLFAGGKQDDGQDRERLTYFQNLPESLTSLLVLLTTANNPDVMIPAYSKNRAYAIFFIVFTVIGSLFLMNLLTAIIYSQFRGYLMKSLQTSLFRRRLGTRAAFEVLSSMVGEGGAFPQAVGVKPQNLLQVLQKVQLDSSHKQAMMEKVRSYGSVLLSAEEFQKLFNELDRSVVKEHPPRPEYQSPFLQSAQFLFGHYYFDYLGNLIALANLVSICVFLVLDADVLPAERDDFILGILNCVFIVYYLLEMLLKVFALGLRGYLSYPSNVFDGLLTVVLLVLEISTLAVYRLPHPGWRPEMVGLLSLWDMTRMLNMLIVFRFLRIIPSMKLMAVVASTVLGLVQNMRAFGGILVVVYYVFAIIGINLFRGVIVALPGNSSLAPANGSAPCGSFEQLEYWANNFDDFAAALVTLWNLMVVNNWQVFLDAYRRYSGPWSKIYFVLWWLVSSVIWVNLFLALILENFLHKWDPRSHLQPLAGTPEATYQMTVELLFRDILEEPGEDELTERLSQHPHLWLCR
T1 sequence (Q8NHX9 whole entry): as the sequence (Q8NHX9 whole entry L11A/L12A) above, with A11L, A12L counted along it

On to `CNCCC=C1c2ccccc2CCc2ccccc21` [LyNa-VA1.5/nortriptyline], for which, in test [1] (100uM, individual recording), the “Whole endo-lysosomal TPC2 current activated by LyNa-VAs, Test 1” value is given as 1814.6; the “Whole endo-lysosomal TPC2 current activated by LyNa-VAs, Test 2” value amounted to 1075.1; the “Whole endo-lysosomal TPC2 current activated by LyNa-VAs, Test 3” value is 1937.9. For the same compound, the “Whole endo-lysosomal TPC2 current activated by LyNa-VAs, Test 4” value in test [1] (100uM, individual recording, Test 4) was found to be 2836.3. The “Whole endo-lysosomal TPC2 current activated by LyNa-VAs, mean” value in test [1] (100uM) was determined as 1916.0.
On to `CC(=O)NBr` [n-Bromoacetamide], for which the I-TPC2 result in test [2] is “No activation”.
With `NC(=O)N1c2ccccc2C=Cc2ccccc21` [Carbamazepine], the figures for the “activation of whole-cell ITPC2-LL/AA (in words)” value (“activation” below) in test [2] and in test [2] (listed as carbamazepine) were “no significant activation” and “not by carbamazepine”, respectively. For the same compound, the current density in test [2] (5 µM) is 8.018 pA/pF and 9.073 pA/pF and 6.645 pA/pF; in test [2] (10 µM) it was 8.227 pA/pF and 9.227 pA/pF and 5.436 pA/pF; in test [2] (20 µM) it was 8.573 pA/pF and 9.164 pA/pF and 6.418 pA/pF; in test [2] (50 µM) it was 8.8 pA/pF and 8.755 pA/pF and 6.073 pA/pF; in test [2] (100 µM), 7.691 pA/pF and 8.973 pA/pF and 5.518 pA/pF; in test [2] (200 µM), 7.464 pA/pF and 9.855 pA/pF and 6.164 pA/pF. For the same compound, the current density in test [2] (400 µM) is 8.109 pA/pF and 8.755 pA/pF and 7.1 pA/pF. In addition, the EC50 entry in test [2] was “No activation”. For the same compound, in test [1] (100uM, individual recording), the “Whole endo-lysosomal TPC2 current activated by LyNa-VAs, Test 1” value is recorded as -17. For the same compound, the “Whole endo-lysosomal TPC2 current activated by LyNa-VAs, Test 2” value in test [1] (100uM, individual recording) was 9.3. Also, in test [1] (100uM, individual recording), the “Whole endo-lysosomal TPC2 current activated by LyNa-VAs, Test 3” value came to 23.1. The “Whole endo-lysosomal TPC2 current activated by LyNa-VAs, mean” value in test [1] (100uM) was determined as 5.1. The ITPC2 entry in test [1] was “No activation”.
With `CN(C)CCCN1c2ccccc2Sc2ccc(C(F)(F)F)cc21` [LyNa-VA2.2, Triflupromazine], the current density in test [2] (10 µM) is 5.827 pA/pF and 3.645 pA/pF and 3 pA/pF; in test [2] (20 µM), 9.373 pA/pF and 9.136 pA/pF and 3.482 pA/pF; in test [2] (50 µM) it was 33.1545 pA/pF and 26.4182 pA/pF and 44.2909 pA/pF; in test [2] (100 µM) it was 125.791 pA/pF and 49.7455 pA/pF and 115.618 pA/pF; in test [2] (200 µM), 155.109 pA/pF and 66.0091 pA/pF and 133.127 pA/pF. Moreover, the EC50 in test [2] (read-out: EC50) was found to be 63 ± 2 µM. The same compound had an ITPC2 in test [1] of 984 ± 294 pA.
`CC(C)(C)c1cc(/C=C(\C#N)C(N)=S)cc(C(C)(C)C)c1O` [Tyrphostin AG 879]: in test [2], the I-TPC2 result is given as “No activation”.
On the same count and under the same terms, under `CN(C)C(=O)C(CCN1CCC(O)(c2ccc(Cl)cc2)CC1)(c1ccccc1)c1ccccc1` [Loperamide] stands “No activation”.
The same measure, in the same setting: the entry for `CC(C[N+](C)(C)C)OC(N)=O` (stereo not shown) [Bethanechol chloride] is “No activation”; for `CN(C)CCCN1c2ccccc2Sc2ccc(C(F)(F)F)cc21` [Triflupromazine hydrochloride] it is over 1500 pA; for `CN(C)c1cc2c(Nc3ccc4c(cnn4Cc4ccccc4)c3)ncnc2cn1` it is “No activation”.
For the compound `CN(C)CCCN1c2ccccc2Sc2ccc(Cl)cc21` [LyNa-VA2.1/chlorpromazine], in test [1] (100uM, individual recording), the “Whole endo-lysosomal TPC2 current activated by LyNa-VAs, Test 1” value is recorded as 1013.4; the “Whole endo-lysosomal TPC2 current activated by LyNa-VAs, Test 2” value is reported as 2019.9; the “Whole endo-lysosomal TPC2 current activated by LyNa-VAs, Test 3” value turned out to be 268.2. Besides, the “Whole endo-lysosomal TPC2 current activated by LyNa-VAs, mean” value in test [1] (100uM) was 1100.5.
Regarding `CC(=O)OC(C)C[N+](C)(C)C` (stereo not shown) [Methacholine chloride], the I-TPC2 result in test [2] is listed as “No activation”.
As to `CN1Cc2c(N)cccc2C(c2ccccc2)C1` (stereo not shown) [Nomifensine maleate], the I-TPC2 entry in test [2] is “No activation”.
Consider `CN(C)CCCN1c2ccccc2CCc2ccccc21` [LyNa-VA1.3/imipramine], for which, in test [1] (100uM, individual recording), the “Whole endo-lysosomal TPC2 current activated by LyNa-VAs, Test 1” value is listed as 621.3; the “Whole endo-lysosomal TPC2 current activated by LyNa-VAs, Test 2” value is 343.9; the “Whole endo-lysosomal TPC2 current activated by LyNa-VAs, Test 3” value was found to be 334.8. In addition, in test [1] (100uM), the “Whole endo-lysosomal TPC2 current activated by LyNa-VAs, mean” value came to 433.3.
As to `CN(C)CCC=C1c2ccccc2CCc2ccccc21` [LyNa-VA1.4, Amitriptyline], the “activation” value in test [2] is listed as “ITPC2 was evoked”. Further, the current density is 12.4 pA/pF in test [2] (5 µM); 7.736 pA/pF and 9.045 pA/pF and 6.655 pA/pF and 9.464 pA/pF in test [2] (10 µM); 11.0727 pA/pF and 11.9545 pA/pF and 11.2909 pA/pF and 11.6545 pA/pF in test [2] (20 µM); 26.9364 pA/pF and 36.5091 pA/pF and 23.5818 pA/pF and 26.8545 pA/pF in test [2] (50 µM); 95.0727 pA/pF and 115.527 pA/pF and 80.9273 pA/pF and 83.2 pA/pF in test [2] (100 µM); 156.364 pA/pF and 155.436 pA/pF and 160.382 pA/pF and 158.109 pA/pF in test [2] (200 µM). The current density in test [2] (400 µM) came to 179.973 pA/pF. Also, the EC50 in test [2] (read-out: EC50) was determined as 102 ± 3 µM. Also, in test [1], the ITPC2 is 876 ± 196 pA.
With `CNCCCC1c2ccccc2C=Cc2ccccc21` [Protriptyline hydrochloride], the I-TPC2 in test [2] is on record as about 1000 pA.
Same read-out and setting: the entry for `N#C/C(=C\c1ccc(O)c(O)c1)C(=O)NCc1ccccc1` [Tyrphostin B42] is “No activation”.
In the case of `CCN(CC)CCCC(C)Nc1c2ccc(Cl)cc2nc2ccc(OC)cc12` (stereo not shown) [Quinacrine dihydrochloride dihydrate], the I-TPC2 entry in test [2] is recorded as “No activation”.
For the compound `CN(C)CCCN1c2ccccc2CCc2ccccc21` [LyNa-VA1.3, Imipramine], the current density in test [2] (10 µM) is 4.664 pA/pF and 36.5364 pA/pF and 8.182 pA/pF; in test [2] (20 µM), 6.518 pA/pF and 56.7909 pA/pF and 7.655 pA/pF; in test [2] (50 µM), 14.1182 pA/pF and 126.618 pA/pF and 15.6182 pA/pF; in test [2] (100 µM), 42.3 pA/pF and 158.945 pA/pF and 32.4364 pA/pF; in test [2] (200 µM), 99.9 pA/pF and 167.955 pA/pF and 41.0364 pA/pF; in test [2] (400 µM) it was 103.264 pA/pF. Also, in test [2] (read-out: EC50), the EC50 stood at 112 ± 1 µM. The ITPC2 in test [1] is 433 ± 94 pA.
`CN(C)CCC[C@@]1(c2ccc(F)cc2)OCc2cc(C#N)ccc21` [Escitalopram]: the I-TPC2 entry in test [2] is listed as “No activation”.
Consider `c1ccc2c(c1)Nc1ccccc1S2` [Phenothiazine], for which the “activation” value in test [2] is listed as “no significant activation”. For the same compound, the current density in test [2] (10 µM) was 10.2273 pA/pF and 10.0273 pA/pF and 9.7 pA/pF; in test [2] (20 µM) it was 11.0091 pA/pF and 7.509 pA/pF and 8.936 pA/pF; in test [2] (50 µM), 10.7545 pA/pF and 9.7 pA/pF and 10.2182 pA/pF; in test [2] (100 µM) it was 9.9 pA/pF and 8.064 pA/pF and 9.882 pA/pF; in test [2] (200 µM), 10.0545 pA/pF and 9.218 pA/pF and 9.555 pA/pF. Further, in test [2], the 50% effective concentration (EC50) result was “No activation”. The “Whole endo-lysosomal TPC2 current activated by LyNa-VAs, Test 1” value in test [1] (100uM, individual recording) was 10.3. Further, in test [1] (100uM, individual recording), the “Whole endo-lysosomal TPC2 current activated by LyNa-VAs, Test 2” value was -2.6. Further, in test [1] (100uM, individual recording), the “Whole endo-lysosomal TPC2 current activated by LyNa-VAs, Test 3” value is on record as 4.8. For the same compound, the “Whole endo-lysosomal TPC2 current activated by LyNa-VAs, mean” value in test [1] (100uM) was determined as 4.2. In addition, the ITPC2 entry in test [1] is “No activation”.
Consider `CN(C)CCCN1c2ccccc2Sc2ccc(C(F)(F)F)cc21` [LyNa-VA2.2/triflupromazine], for which, in test [1] (100uM, individual recording), the “Whole endo-lysosomal TPC2 current activated by LyNa-VAs, Test 1” value was 1572; the “Whole endo-lysosomal TPC2 current activated by LyNa-VAs, Test 2” value was found to be 698; the “Whole endo-lysosomal TPC2 current activated by LyNa-VAs, Test 3” value was 681.2. In test [1] (100uM), the “Whole endo-lysosomal TPC2 current activated by LyNa-VAs, mean” value was 983.7.
For the compound `COC(=O)C1=CCCN(C)C1` [Arecoline], in test [2], the I-TPC2 result is given as “No activation”.
On the same count and under the same terms, under `C[N+](C)(C)CC#CCN1CCCC1=O` stands “No activation”; under `CN(C)CCCN1c2ccccc2Sc2ccc(Cl)cc21` [Chlorpromazine hydrochloride], over 1500 pA.
Same read-out and setting: the entry for `C[N+](C)(C)CCOC(N)=O` [Carbachol] is “No activation”; for `C#CCOC(=O)C1=CCCN(C)C1` [Arecaidine propargyl ester] it is “No activation”; for `O=C(Nc1ccc([N+](=O)[O-])cc1Cl)c1cc(Cl)ccc1O` [Niclosamide] it is “No activation”.
`N=C(N)NC(=O)Cc1c(Cl)cccc1Cl` [Guanfacine hydrochloride]: the I-TPC2 result in test [2] is on record as “No activation”.
Still for that read-out and setting: under `C[C@@H]1O[C@H](C[N+](C)(C)C)C[C@H]1O` [Muscarine] stands “No activation”.
Same read-out and setting: under `CN(C)CCC=C1c2ccccc2CCc2ccccc21` [Amitriptyline hydrochloride] stands about 1000 pA.
The same measure, in the same setting: the entry for `CCCNCC(O)COc1ccccc1C(=O)CCc1ccccc1` (stereo not shown) [Propafenone] is “No activation”.
